Test results as given in patent US11059792B2, “Imidazolyl tricyclic enones as antioxidant inflammation modulators” (REATA PHARMACEUTICALS, INC., priority 2015, dated 2021).

What follows are compounds tested on RAW 264.7 cells (assay: Nitric oxide suppression assay (IFNγ-induced NO production, Griess detection)). Conditions: RAW264.7, RAW 264.7 mouse macrophages, 2 h compound pre-treatment, 20 ng/mL interferon gamma, ~18 h.
Assay type: cell-based
Procedure: RAW 264.7, a mouse macrophage cell line, was obtained from American Type Culture Collection (Manassas Va.) and maintained in the log phase of growth in Dulbecco's Modified Eagle's Medium (DMEM), 10% heat inactivated fetal calf serum and 100 units/mL antibiotic-antimycotic (AA). Cells were cultured and maintained in a humidified incubator at 37° C. under 5% CO2 and 95% air. Cells were sub-cultured every 3 days by scraping and were not used beyond passage 20. All cell culture supplies were obtained from Life Technologies (Grand Island, N.Y.).
RAW 264.7 cells were plated 1 day in advance of experiment at a concentration of 80,000 cells/well onto CellBIND® 96 well plates (Corning, N.Y.) in a total volume of 100 μL. The next day, pre-treat cells with compounds (from 3 μM to 0.3 nM serially diluted in a 10 point curve) from a 10× stock by adding 10 μL per well in complete DMEM media containing 10% fetal calf serum. The plates were centrifuged for 3 minutes at 400×g at room temperature followed by 2 hour incubation at 37° C. The cells were then incubated overnight at 37° C. with 10 μL of the insult, interferon gamma (R&D Systems, Minneapolis, Minn.), from a 10× stock for a final concentration of 20 ng/mL. The plates were centrifuged for 3 minutes at 400×g at room temperature followed by ˜18 hour incubation at 37° C. The following day, transfer 50 μL cell culture supernatant from each well into a clear bottom 96 well plate and follow the instructions from Promega's Griess Detection Kit #G2930 (Madison, Wis.) which involves the addition of 50 μL of the provided sulfanilamide solution for a 5-10 minute incubation at room temperature. Next add 50 μL of the provided N-1-napthylethylenediamine dihydrochloride (NED) solution for a 5-10 minute incubation at room temperature and protected from light. If any air bubbles were introduced into the well, the plates need to be centrifuged for 5 minutes at 400×g at room temperature to avoid interference with absorbance readings. The plates were read for absorbance within 30 minutes with a filter between 520 nm and 550 nm.
For the ability of compounds to suppress the increase in nitric oxide release, the percent maximal intensity of nitric oxide detected in each well was normalized to that induced by the peak value for 20 ng/mL of interferon gamma alone and plotted against the compound concentration to calculate IC50 values and to control for plate-to-plate variability. Concentration-response data were analyzed using GraphPad Prism (San Diego, Calif.); the IC50 values were derived from a single curve fit to the mean data of n=2-3, in duplicates.
All compounds were dissolved in dimethyl sulfoxide at 10 mM stock solutions and tested at a concentration that the dimethyl sulfoxide levels never exceeded 1%.
Compound `C[C@@H]1C(=O)C(C#N)=C[C@]2(C)c3nc(-c4ccccc4)[nH]c3CC[C@@H]12` [Compound T1] has an IC50 of 151 nM. `C[C@@H]1C(=O)C(C#N)=C[C@]2(C)c3nc(-c4ccccc4)n(-c4ccccc4)c3CC[C@@H]12` [Compound T2] gave an IC50 of 471 nM. `Cc1nc2c(n1-c1ccccc1)CC[C@H]1[C@H](C)C(=O)C(C#N)=C[C@]21C` [Compound T3] was tested, and the IC50 was 40.8 nM. Compound `CC(=O)OCCCc1cccc(-n2c(-c3ccccc3)nc3c2CC[C@H]2[C@H](C)C(=O)C(C#N)=C[C@]32C)c1` [Compound T4] has an IC50 of 662 nM. In the case of `Cc1nc2c(n1-c1cccc(CCCO)c1)CC[C@H]1[C@H](C)C(=O)C(C#N)=C[C@]21C` [Compound T6], the IC50 is reported as 19.4 nM. `Cc1nc2c(n1-c1cccc(-c3ccccc3)c1)CC[C@H]1[C@H](C)C(=O)C(C#N)=C[C@]21C` [Compound T7] showed an IC50 of 91.8 nM. `C[C@@H]1C(=O)C(C#N)=C[C@]2(C)c3nc(-c4ccccc4)n(-c4nnn(C)n4)c3CC[C@@H]12` [Compound T8] showed an IC50 of 28.8 nM. `C[C@@H]1C(=O)C(C#N)=C[C@]2(C)c3nc(-c4cnn(C)c4)n(-c4ccccc4)c3CC[C@@H]12` [Compound T9] was tested, and the IC50 was 22.7 nM. In the case of `Cc1ccccc1-n1c(C)nc2c1CC[C@H]1[C@H](C)C(=O)C(C#N)=C[C@]21C` [Compound T10], the IC50 is reported as 62.8 nM. `C[C@@H]1C(=O)C(C#N)=C[C@]2(C)c3nc(CCOCc4ccccc4)n(-c4ccccc4)c3CC[C@@H]12` [Compound T11] gave an IC50 of 93.2 nM. With `C[C@@H]1C(=O)C(C#N)=C[C@]2(C)c3nc(CCO)n(-c4ccccc4)c3CC[C@@H]12` [Compound T12] the IC50 was 11.3 nM. `Cc1nc2c(n1-c1cnn(C)c1)CC[C@H]1[C@H](C)C(=O)C(C#N)=C[C@]21C` [Compound T13] was tested, and the IC50 was 233 nM. Compound `COC(=O)CCc1cccc(-n2c(C)nc3c2CC[C@H]2[C@H](C)C(=O)C(C#N)=C[C@]32C)c1` [Compound T14] has an IC50 of 222 nM. Work on `Cc1nc2c(n1-c1cccc(CCC(=O)O)c1)CC[C@H]1[C@H](C)C(=O)C(C#N)=C[C@]21C` [Compound T15] yielded an IC50 greater than 3000 nM. For `C[C@@H]1C(=O)C(C#N)=C[C@]2(C)c3nc(-c4cnn(C)c4)n(-c4nnn(C)n4)c3CC[C@@H]12` [Compound T16], the IC50 was 132 nM. `C[C@@H]1C(=O)C(C#N)=C[C@]2(C)c3nc(-c4ccccc4)n(-c4cnn(C)c4)c3CC[C@@H]12` [Compound T17] was tested, and the IC50 was 120 nM. `CNC(=O)CCc1cccc(-n2c(C)nc3c2CC[C@H]2[C@H](C)C(=O)C(C#N)=C[C@]32C)c1` [Compound T18] showed an IC50 of 693 nM. With `Cc1nc2c(n1-c1cccc(CCC(=O)N(C)C)c1)CC[C@H]1[C@H](C)C(=O)C(C#N)=C[C@]21C` [Compound T19] the IC50 was 82.7 nM. For `Cc1nc2c(n1-c1cccc(CCC(N)=O)c1)CC[C@H]1[C@H](C)C(=O)C(C#N)=C[C@]21C` [Compound T20], the IC50 was 1000 nM. Work on `COCCCn1c(C)nc2c1CC[C@H]1[C@H](C)C(=O)C(C#N)=C[C@]21C` [Compound T21] yielded an IC50 of 407 nM. `Cc1nc2c(n1-c1cccc(-c3cncnc3)c1)CC[C@H]1[C@H](C)C(=O)C(C#N)=C[C@]21C` [Compound T22] showed an IC50 of 47.8 nM. `C[C@@H]1C(=O)C(C#N)=C[C@]2(C)c3nc(Br)n(-c4ccccc4)c3CC[C@@H]12` [Compound T23] was tested, and the IC50 was 31.1 nM. `C[C@@H]1C(=O)C(C#N)=C[C@]2(C)c3nc(-c4ccncc4)n(-c4ccccc4)c3CC[C@@H]12` [Compound T24] was tested, and the IC50 was 48.8 nM. For `Cc1ccccc1-c1nc2c(n1-c1nnn(C)n1)CC[C@H]1[C@H](C)C(=O)C(C#N)=C[C@]21C` [Compound T25], the IC50 was 15.4 nM. `C[C@@H]1C(=O)C(C#N)=C[C@]2(C)c3nc(C#N)n(-c4ccccc4)c3CC[C@@H]12` [Compound T26] showed an IC50 of 27.7 nM. `C[C@@H]1C(=O)C(C#N)=C[C@]2(C)c3nc(C(N)=O)n(-c4ccccc4)c3CC[C@@H]12` [Compound T27] showed an IC50 of 53.1 nM. Work on `Cc1nc2c(n1-c1ccccc1)CC[C@H]1[C@H](C)C(=O)C(C(N)=O)=C[C@]21C` [Compound T28] yielded an IC50 of 138 nM. Compound `Cc1nc2c(n1-c1ccc(-c3ccccc3)cc1)CC[C@H]1[C@H](C)C(=O)C(C#N)=C[C@]21C` [TS] has an IC50 of 136 nM.
